Assay [1] deals with T1, HiBit-KRAS^G12C (Homo sapiens, UniProt P01116, G12C). The assay is described as follows: HiBit degradation assay in MiaPaCa-2 HiBit-KRas^G12C cells. The assay is classed as cell-based. Conditions: 0.5% DMSO, 24 hours; for Dmax: MIA PaCa-2, MiaPaCa-2 HiBit-KRas^G12C cells, read-out: KRas^G12C-HiBiT (MiaPaCa; 0.5% DMSO) DMax; for DC50: read-out: KRas^G12C-HiBiT (MiaPaCa; 0.5% DMSO) IC50. The procedure, abridged: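 MiaPaCa-2 cells with CRISPR N-terminal HiBit knock-in on one endogenous KRAS^G12C allele, treated 24 hours at 37° C with compound titrated 10 μM to 20 nM (0.1% or 0.5% DMSO). Lytic HiBit luminescence normalized to DMSO, 4-parameter fit giving DC50 and Dmax; points cytotoxic to […] cells by alamar blue excluded.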
T1 sequence (P01116 1-186 isoform P01116-2 G12C limits assumed): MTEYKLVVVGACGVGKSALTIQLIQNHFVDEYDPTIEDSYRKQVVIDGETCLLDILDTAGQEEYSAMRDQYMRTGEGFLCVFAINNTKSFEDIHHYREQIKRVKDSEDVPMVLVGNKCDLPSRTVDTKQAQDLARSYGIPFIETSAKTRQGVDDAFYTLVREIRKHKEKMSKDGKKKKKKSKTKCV
On the technique in general: With HiBiT, luminescence reflects the tagged protein that the partner subunit can reach.

Assay [2] deals with T1, HiBit-KRAS^G12C. The assay is described as follows: HiBit degradation assay in SW1573 HiBit-KRas^G12C cells. The assay is classed as cell-based. On the set-up: expressed in transfected cells; host or cells: SW1573 (clone E6), modified pcDNA3.1 vector, TK promoter. The settings on record: 0.5% DMSO, 24 hours; for Dmax: SW1573, SW1573 HiBit-KRas^G12C, read-out: KRas^G12C-HiBiT (SW1573; 0.5% DMSO) Dmax**; for DC50: read-out: KRas^G12C-HiBiT (SW1573; 0.5% DMSO) IC50***. The procedure, abridged: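 SW1573 cells stably expressing N-terminally HiBit-tagged KRAS G12C, under the TK promoter, were treated 24 h at 37 °C with 10 μM to 20 nM compound in 0.1% or 0.5% DMSO. Residual HiBit luminescence normalised to DMSO and fitted with a 4-parameter model for DC50 and Dmax. Points with ≥50% viability loss (alamar blue) excluded.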

The mark [3] stands for this setting: MiaPaCa-2 HiBit-KRas^G12C cells.

On to `C=CC(=O)N1CCN(c2nc(OCCN3CCC(COCC(=O)N[C@H](C(=O)N4C[C@H](O)C[C@H]4C(=O)N[C@@H](C)c4ccc(-c5scnc5C)cc4)C(C)(C)C)CC3)nc3c(F)c(-c4cccc5cccc(C)c45)c(Cl)cc23)C[C@@H]1CC#N` [Compound 135, (2S,4R)-1-[(2S)-2-[2-({1-[2-({6-chloro-4-[(3S)-3-(cyanomethyl)-4-(prop-2-enoyl)piperazin-1-yl]-8-fluoro-7-(8-methylnaphthalen-1-yl)quinazolin-2-yl}oxy)ethyl]-piperidin-4-yl}methoxy)acetamido]-3,3-dimethylbutanoyl]-4-hydroxy-N-[(1S)-1-[4-(4-methyl-1,3-thiazol-5-yl)phenyl]ethyl]pyrrolidine-2-carboxamide], for which the Dmax in assay [1] (maximum degradation) and in assay [2] was 35 to 70% throughout. For the same compound, the DC50 in assay [1] (setting [3]) and in assay [2] (SW1573 HiBit-KRas^G12C) was 100 to 1000 nM throughout.

As to `C=CC(=O)N1CCN(c2nc(OCCN3CCC4(CC3)CN(c3cc([C@@H](C(=O)N5C[C@H](O)C[C@H]5C(=O)N[C@@H](C)c5ccc(-c6scnc6C)cc5)C(C)C)on3)C4)nc3c(F)c(-c4cc(O)cc5ccccc45)c(Cl)cc23)C[C@@H]1CC#N` [Compound 137, (2S,4R)-1-[(2S)-2-(3-{7-[2-({6-chloro-4-[(3S)-3-(cyanomethyl)-4-(prop-2-enoyl)piperazin-1-yl]-8-fluoro-7-(3-hydroxynaphthalen-1-yl)quinazolin-2-yl}oxy)ethyl]-2,7-diazaspiro[3.5]nonan-2-yl}-1,2-oxazol-5-yl)-3-methylbutanoyl]-4-hydroxy-N-[(1S)-1-[4-(4-methyl-1,3-thiazol-5-yl)phenyl]ethyl]pyrrolidine-2-carboxamide], the DC50 in assay [1] (setting [3]) was over 1000 nM; in assay [2] (SW1573 HiBit-KRas^G12C), 100 to 1000 nM. The Dmax in assay [2] was under 35%.

As for `C=CC(=O)N1CCN(c2nc(OCCN3CCC4(CC3)CN(c3cc([C@H](C(=O)N5C[C@H](O)C[C@H]5C(=O)N[C@@H](C)c5ccc(-c6scnc6C)cc5)C(C)C)on3)C4)nc3c(F)c(-c4cc(O)cc5ccccc45)c(Cl)cc23)C[C@@H]1CC#N` [Compound 139, (2S,4R)-1-[(2R)-2-(3-{7-[2-({6-chloro-4-[(3S)-3-(cyanomethyl)-4-(prop-2-enoyl)piperazin-1-yl]-8-fluoro-7-(3-hydroxynaphthalen-1-yl)quinazolin-2-yl}oxy)ethyl]-2,7-diazaspiro[3.5]nonan-2-yl}-1,2-oxazol-5-yl)-3-methylbutanoyl]-4-hydroxy-N-[(1S)-1-[4-(4-methyl-1,3-thiazol-5-yl)phenyl]ethyl]pyrrolidine-2-carboxamide], in assay [1] (MiaPaCa-2 HiBit-KRas^G12C cells, maximum degradation), the “KRas^G12C-HiBiT (MiaPaCa; 0.5% DMSO) DMax” value is “A (A ≥ 70)”. Moreover, the DC50 is 100 to 1000 nM in assay [1] (setting [3]) and under 100 nM in assay [2] (SW1573 HiBit-KRas^G12C). Besides, the “KRas^G12C-HiBiT (SW1573; 0.5% DMSO) Dmax**” value in assay [2] (SW1573 HiBit-KRas^G12C) is reported as “A (A ≥ 70)”.

Take `C=CC(=O)N1CCN(c2nc(OCCN3CC[C@@H](COCC(=O)N[C@H](C(=O)N4C[C@H](O)C[C@H]4C(=O)N[C@@H](C)c4ccc(-c5scnc5C)cc4)C(C)(C)C)C3)nc3c(F)c(-c4cc(O)cc5ccccc45)c(Cl)cc23)C[C@@H]1CC#N` [Compound 140, (2S,4R)-1-[(2S)-2-(2-{[(3R)-1-[2-({6-chloro-4-[(3S)-3-(cyanomethyl)-4-(prop-2-enoyl)piperazin-1-yl]-8-fluoro-7-(3-hydroxynaphthalen-1-yl)quinazolin-2-yl}oxy)ethyl]pyrrolidin-3-yl]methoxy}acetamido)-3,3-dimethylbutanoyl]-4-hydroxy-N-[(1S)-1-[4-(4-methyl-1,3-thiazol-5-yl)phenyl]ethyl]pyrrolidine-2-carboxamide]: the Dmax in assay [1] (maximum degradation) and in assay [2] was 35 to 70% in each case. Further, the results for the DC50 in assay [1] (setting [3]) and in assay [2] (SW1573 HiBit-KRas^G12C) were over 1000 nM and 100 to 1000 nM, respectively.

(Values after patent US20220370416A1, “COMPOUNDS AND METHODS FOR TARGETED DEGRADATION OF KRAS” (Arvinas Operations, Inc., priority 2020, published 2022).)
